Experimental data as given in patent US9302085B2, “Methods and compositions for facilitating arterial access” (The Regents of the University of California, priority 2009, dated 2016).
“Also recorded” adds a separate entry of the source.

Tested on: radial artery
Assay: Radial artery diameter measured with ultrasound after topical application to the wrist
Assay type: in vivo, human
Details: for effect on the vasodilatory action of nitroglycerin: adjacent skin sites
Procedure: A dose escalation study of topical nitroglycerin was performed. Twenty healthy volunteers were selected based on the following inclusion criteria: willing and able to give written informed consent and comply with study requirements; and able to speak English. In addition, the subjects were selected based on the following exclusion criteria: presence or history of liver, cardiovascular, rheumatologic, cancer or renal disease; current treatment with any vasodilator therapy; systolic blood pressure of less than 90 mmHg; history of radial artery catheterization within the previous year; absence of radial artery blood flow in one or both arms; pregnancy; and active infection.
Each of the twenty selected subjects received either 15 mg or 30 mg of nitroglycerin (Nitro-Bid 2% ointment, 1 or 2 inches, E Fougera & Co, NY) applied to one wrist and a placebo (sorbolene cream) applied to the other wrist. Applications were performed as single-blind (subject) experiments. Radial artery diameter was measured with ultrasound before application of the topical compositions and at time intervals after application of the topical compositions. The subjects were tested again at a later date, where they received the alternate dose of nitroglycerin on one wrist and the placebo on the other wrist.
The same subjects received topical applications of nitroglycerin (30 mg) with either 20 mg or 40 mg of lidocaine topical cream (LMX 4%, Ferndale, Mich.). The nitroglycerin and lidocaine were applied at adjacent skin sites on the wrist.

| SMILES | effect on the vasodilatory action of nitroglycerin (20 mg lidocaine topical cream with 30 mg nitroglycerin, FIG. 2) | effect on the vasodilatory action of nitroglycerin (40 mg lidocaine topical cream with 30 mg nitroglycerin, FIG. 3) | effect on arterial diameter (lidocaine alone, topical, FIG. 3) | increase in radial artery diameter compared to the placebo (15 mg nitroglycerin topical on one wrist, healthy volunteers, FIG. 1) | increase in radial artery diameter (30 mg nitroglycerin topical on one wrist, healthy volunteers, FIG. 1) | duration of the increase in radial artery diameter (30 mg nitroglycerin topical, 2-hour application) | vasodilation (radial artery diameter versus time) (30 mg nitroglycerin topical, FIG. 1) | diameter of the radial artery in the contralateral wrist (topical nitroglycerin on the other wrist) |
| --- | --- | --- | --- | --- | --- | --- | --- | --- |
| CCN(CC)CC(=O)Nc1c(C)cccc1C [lidocaine] | no detectable effect | did not prevent the vasodilation; also recorded: no detectable effect | no appreciable effect | – | – | – | – | – |
| O=[N+]([O-])OCC(CO[N+](=O)[O-])O[N+](=O)[O-] [nitroglycerin] | – | – | – | did not significantly increase | approximately 25% | maintained during the 2-hour application | significant vasodilation | did not affect |
